Literature values, collected in patent US5629431A, “Inhibitors of retroviral proteases” (Hoechst Aktiengesellschaft, priority 1989, dated 1997).
Square brackets hold non-standard residues; d marks the D form. Peptide text beside a SMILES is read from it. * marks the point of attachment. Sta = CC(C)C[C@H](N)[C@@H](O)CC(=O)O; Isovaleryl = CC(C)CC(=O)*

Experiments:
[1] = test system: formation of the nuclear protein p24 and activity of reverse transcriptase; settings: high doses; in the biosynthesis (v. d. Helm et al., FEBS Lett. 247, 1989)
HIV protease = settings: literature value (Katoh et al., Nature 329, 1987); read-out: IC50 against HIV protease

CC(C)CC(=O)N[C@H](C(=O)N[C@H](C(=O)N[C@@H](CC(C)C)[C@@H](O)CC(=O)N[C@@H](C)C(=O)N[C@@H](CC(C)C)[C@@H](O)CC(=O)O)C(C)C)C(C)C [pepstatin A] (Isovaleryl-VV[Sta]A[Sta]-OH)
activity of reverse transcriptase [1]: reduction
formation of the nuclear protein p24 [1]: reduction
